{
  "source": "patent US5395610A",
  "about": "“Agents for potentiating the effects of antitumor agents and combating multiple drug resistance” (Burroughs-Wellcome Co., priority 1989, dated 1995)",
  "key": {"[1]": {"test": "In vitro cytotoxicity / potentiation of Actinomycin D in Chinese hamster ovary cells, drug resistant C5S32 (MTT)", "type": "cell-based", "conditions": "hamster, cho c5s32 cells, fraction of untreated cultures (1.00), read-out: Cytotoxicity, normalized absorbance, Drug Resistant C5S32, 0 (no Act D); for viability at 96 h, 1 µM: 1 μM potentiating agent alone; for viability at 96 h, 10 µM: 10 μM potentiating agent alone"}, "[2]": {"test_system": "Chinese hamster ovary (CHO) cells, drug resistant C5S32", "test": "In vitro cytotoxicity / potentiation of Actinomycin D in Chinese hamster ovary cells, drug resistant C5S32 (MTT)", "type": "cell-based", "conditions": "96 h, fraction of Act D alone (1.00)"}, "in vitro": {"test": "in vitro", "type": "cell-based, Chinese hamster", "conditions": "hamster, cho auxb1 cells"}, "[3]": {"test": "In vitro cytotoxicity / potentiation of Actinomycin D in human KB epidermoid carcinoma cells, wildtype KB 3-1 (MTT)", "type": "cell-based", "conditions": "human, kb 3-1 cells, fraction of untreated cultures, read-out: Cytotoxicity, normalized absorbance, Wildtype KB 3-1, 0 (no Act D); for viability at 96 h, 1 µM: 1 μM potentiating agent alone; for viability at 96 h, 10 µM: 10 μM potentiating agent alone"}, "[4]": {"test_system": "human KB epidermoid carcinoma cells, wildtype KB 3-1", "test": "In vitro cytotoxicity / potentiation of Actinomycin D in human KB epidermoid carcinoma cells, wildtype KB 3-1 (MTT)", "type": "cell-based", "conditions": "96 h, fraction of Act D alone"}, "[5]": {"test": "In vitro cytotoxicity / potentiation of Actinomycin D in human KB epidermoid carcinoma cells, drug resistant KB V-1 (MTT)", "type": "cell-based", "conditions": "human, kb v-1 cells, fraction of untreated cultures, read-out: Cytotoxicity, normalized absorbance, Drug Resistant KB V-1, 0 (no Act D); for viability at 96 h, 1 µM: 1 μM potentiating agent alone; for viability at 96 h, 10 µM: 10 μM potentiating agent alone"}, "[6]": {"test_system": "human KB epidermoid carcinoma cells, drug resistant KB V-1", "test": "In vitro cytotoxicity / potentiation of Actinomycin D in human KB epidermoid carcinoma cells, drug resistant KB V-1 (MTT)", "type": "cell-based", "conditions": "96 h, fraction of Act D alone"}, "[7]": {"conditions": "1 μM potentiating agent + Act D 0.5 μM"}, "[8]": {"conditions": "10 μM potentiating agent + Act D 0.5 μM"}, "[9]": {"conditions": "1 μM potentiating agent + Act D 0.1 nM"}, "[10]": {"conditions": "10 μM potentiating agent + Act D 0.1 nM"}, "[11]": {"conditions": "1 μM potentiating agent + Act D 20 nM"}, "[12]": {"conditions": "10 μM potentiating agent + Act D 20 nM"}},
  "data": [
    {"smiles": "CCN(CC)CC/C=C1/c2ccccc2COc2ccc(Br)cc21", "note": "[(I), (Z)-3-(2-Bromo-6,11-dihydrodibenz [b,e]oxepin-11-ylidene)-N,N-diethylpropylamine]", "values": [
      {"measurement": "viability at 96 h, 1 µM", "setting": "[1]", "result": 95, "unit": "%"},
      {"measurement": "viability at 96 h, 10 µM", "setting": "[1]", "result": 100, "unit": "%"},
      {"measurement": "Synergism with Actinomycin D, normalized absorbance, Drug Resistant C5S32, +ACT D", "setting": "[2]; [7]", "result": 0.77},
      {"measurement": "Synergism with Actinomycin D, normalized absorbance, Drug Resistant C5S32, +ACT D", "setting": "[2]; [8]", "result": 0.36},
      {"measurement": "viability at 96 h, 1 µM", "setting": "in vitro", "result": 90, "unit": "%"},
      {"measurement": "viability at 96 h, 10 µM", "setting": "in vitro", "result": 92, "unit": "%"},
      {"measurement": "viability at 96 h, 1 µM", "setting": "[3]", "result": 99, "unit": "%"},
      {"measurement": "viability at 96 h, 10 µM", "setting": "[3]", "result": 30, "unit": "%"},
      {"measurement": "Synergism with Actinomycin D, normalized absorbance, Wildtype KB 3-1, +ACT D", "setting": "[4]; [9]", "result": 0.99},
      {"measurement": "Synergism with Actinomycin D, normalized absorbance, Wildtype KB 3-1, +ACT D", "setting": "[4]; [10]", "result": 0.40},
      {"measurement": "viability at 96 h, 1 µM", "setting": "[5]", "result": 98, "unit": "%"},
      {"measurement": "viability at 96 h, 10 µM", "setting": "[5]", "result": 34, "unit": "%"},
      {"measurement": "Synergism with Actinomycin D, normalized absorbance, Drug Resistant KB V-1, +ACT D", "setting": "[6]; [11]", "result": 0.95},
      {"measurement": "Synergism with Actinomycin D, normalized absorbance, Drug Resistant KB V-1, +ACT D", "setting": "[6]; [12]", "result": 0.04}
    ]},
    {"smiles": "CN(C)CC/C=C1/c2cc(Br)ccc2COc2ccc(Br)cc21", "note": "[(U), (Z)-3-(2,9-Dibromo-6,11-dihydrodibenz [b,e]-oxepin-11-ylidene)-N,N-dimethylpropylamine]", "values": [
      {"measurement": "viability at 96 h, 1 µM", "setting": "[1]", "result": 94, "unit": "%"},
      {"measurement": "viability at 96 h, 10 µM", "setting": "[1]", "result": 74, "unit": "%"},
      {"measurement": "Synergism with Actinomycin D, normalized absorbance, Drug Resistant C5S32, +ACT D", "setting": "[2]; [7]", "result": 0.93},
      {"measurement": "Synergism with Actinomycin D, normalized absorbance, Drug Resistant C5S32, +ACT D", "setting": "[2]; [8]", "result": 0.24},
      {"measurement": "viability at 96 h, 1 µM", "setting": "in vitro", "result": 84, "unit": "%"},
      {"measurement": "viability at 96 h, 10 µM", "setting": "in vitro", "result": 79, "unit": "%"}
    ]},
    {"smiles": "CN(C)CC/C=C1\\c2cc(Br)ccc2COc2ccc(Br)cc21", "note": "[(V), (E)-3-(2,9-Dibromo-6,11-dihydrodibenz [b,e]-oxepin-11-ylidene)-N,N-dimethylpropylamine]", "values": [
      {"measurement": "viability at 96 h, 1 µM", "setting": "[1]", "result": 91, "unit": "%"},
      {"measurement": "viability at 96 h, 10 µM", "setting": "[1]", "result": 75, "unit": "%"},
      {"measurement": "Synergism with Actinomycin D, normalized absorbance, Drug Resistant C5S32, +ACT D", "setting": "[2]; [7]", "result": 0.87},
      {"measurement": "Synergism with Actinomycin D, normalized absorbance, Drug Resistant C5S32, +ACT D", "setting": "[2]; [8]", "result": 0.20},
      {"measurement": "viability at 96 h, 1 µM", "setting": "in vitro", "result": 86, "unit": "%"},
      {"measurement": "viability at 96 h, 10 µM", "setting": "in vitro", "result": 77, "unit": "%"}
    ]},
    {"smiles": "CN(C)CC/C=C1/c2ccccc2COc2ccc(Br)cc21.Cl.Cl.Cl", "note": "[(A), (Z)-3-(2-Bromo-6,11-dihydrodibenz [b,e]oxepin-11-ylidene)-N,N-dimethylpropylamine trihydrochloride]", "values": [
      {"measurement": "viability at 96 h, 1 µM", "setting": "[1]", "result": 85, "unit": "%"},
      {"measurement": "viability at 96 h, 10 µM", "setting": "[1]", "result": 42, "unit": "%"},
      {"measurement": "Synergism with Actinomycin D, normalized absorbance, Drug Resistant C5S32, +ACT D", "setting": "[2]; [7]", "result": 0.71},
      {"measurement": "Synergism with Actinomycin D, normalized absorbance, Drug Resistant C5S32, +ACT D", "setting": "[2]; [8]", "result": 0.22},
      {"measurement": "viability at 96 h, 1 µM", "setting": "in vitro", "result": 100, "unit": "%"},
      {"measurement": "viability at 96 h, 10 µM", "setting": "in vitro", "result": 100, "unit": "%"},
      {"measurement": "viability at 96 h, 1 µM", "setting": "[3]", "result": 99, "unit": "%"},
      {"measurement": "viability at 96 h, 10 µM", "setting": "[3]", "result": 98, "unit": "%"},
      {"measurement": "Synergism with Actinomycin D, normalized absorbance, Wildtype KB 3-1, +ACT D", "setting": "[4]; [9]", "result": 0.88},
      {"measurement": "Synergism with Actinomycin D, normalized absorbance, Wildtype KB 3-1, +ACT D", "setting": "[4]; [10]", "result": 1.00},
      {"measurement": "viability at 96 h, 1 µM", "setting": "[5]", "result": 100, "unit": "%"},
      {"measurement": "viability at 96 h, 10 µM", "setting": "[5]", "result": 75, "unit": "%"},
      {"measurement": "Synergism with Actinomycin D, normalized absorbance, Drug Resistant KB V-1, +ACT D", "setting": "[6]; [11]", "result": 0.99},
      {"measurement": "Synergism with Actinomycin D, normalized absorbance, Drug Resistant KB V-1, +ACT D", "setting": "[6]; [12]", "result": 0.21}
    ]},
    {"smiles": "Brc1ccc2c(c1)/C(=C/CCN1CCCC1)c1ccccc1OC2", "note": "[(M), (Z)-1-[3-(9-Bromo-6,11-dihydrodibenz [b,e]-oxepin-11-ylidene)propyl]pyrrolidine]", "values": [
      {"measurement": "viability at 96 h, 1 µM", "setting": "[1]", "result": 86, "unit": "%"},
      {"measurement": "viability at 96 h, 10 µM", "setting": "[1]", "result": 100, "unit": "%"},
      {"measurement": "Synergism with Actinomycin D, normalized absorbance, Drug Resistant C5S32, +ACT D", "setting": "[2]; [7]", "result": 0.83},
      {"measurement": "Synergism with Actinomycin D, normalized absorbance, Drug Resistant C5S32, +ACT D", "setting": "[2]; [8]", "result": 0.35},
      {"measurement": "viability at 96 h, 1 µM", "setting": "in vitro", "result": 79, "unit": "%"},
      {"measurement": "viability at 96 h, 10 µM", "setting": "in vitro", "result": 84, "unit": "%"},
      {"measurement": "viability at 96 h, 1 µM", "setting": "[3]", "result": 100, "unit": "%"},
      {"measurement": "viability at 96 h, 10 µM", "setting": "[3]", "result": 96, "unit": "%"},
      {"measurement": "viability at 96 h, 1 µM", "setting": "[5]", "result": 95, "unit": "%"},
      {"measurement": "viability at 96 h, 10 µM", "setting": "[5]", "result": 65, "unit": "%"},
      {"measurement": "Synergism with Actinomycin D, normalized absorbance, Drug Resistant KB V-1, +ACT D", "setting": "[6]; [11]", "result": 1.00},
      {"measurement": "Synergism with Actinomycin D, normalized absorbance, Drug Resistant KB V-1, +ACT D", "setting": "[6]; [12]", "result": 0.31}
    ]},
    {"smiles": "CN(C)CCC=C1c2ccccc2COc2ccccc21", "note": "[(W), doxepin, reference compound]", "values": [
      {"measurement": "viability at 96 h, 1 µM", "setting": "[1]", "result": 98, "unit": "%"},
      {"measurement": "viability at 96 h, 10 µM", "setting": "[1]", "result": 55, "unit": "%"},
      {"measurement": "Synergism with Actinomycin D, normalized absorbance, Drug Resistant C5S32, +ACT D", "setting": "[2]; [7]", "result": 0.86},
      {"measurement": "Synergism with Actinomycin D, normalized absorbance, Drug Resistant C5S32, +ACT D", "setting": "[2]; [8]", "result": 0.48},
      {"measurement": "viability at 96 h, 1 µM", "setting": "in vitro", "result": 100, "unit": "%"},
      {"measurement": "viability at 96 h, 10 µM", "setting": "in vitro", "result": 100, "unit": "%"}
    ]},
    {"smiles": "CCN(CC)CC/C=C1\\c2ccccc2COc2ccc(Br)cc21", "note": "[(N), (E) -3-(2-Bromo-6,11-dihydrodibenz [b,e]oxepin-11-ylidene)-N, N-diethylpropylamine]", "values": [
      {"measurement": "viability at 96 h, 1 µM", "setting": "[1]", "result": 100, "unit": "%"},
      {"measurement": "viability at 96 h, 10 µM", "setting": "[1]", "result": 80, "unit": "%"},
      {"measurement": "Synergism with Actinomycin D, normalized absorbance, Drug Resistant C5S32, +ACT D", "setting": "[2]; [7]", "result": 0.85},
      {"measurement": "Synergism with Actinomycin D, normalized absorbance, Drug Resistant C5S32, +ACT D", "setting": "[2]; [8]", "result": 0.33},
      {"measurement": "viability at 96 h, 1 µM", "setting": "in vitro", "result": 86, "unit": "%"},
      {"measurement": "viability at 96 h, 10 µM", "setting": "in vitro", "result": 83, "unit": "%"}
    ]}
  ]
}
